Measured values reported in patent US20250122218A1, “MODULATORS OF CYSTIC FIBROSIS TRANSMEMBRANE CONDUCTANCE REGULATOR” (Vertex Pharmaceuticals Incorporated, priority 2022, published 2025).

What follows are compounds tested against T1, CFTR in F508del/MF-HBE cells (Homo sapiens, UniProt P13569, DEL508-508) (assay: Ussing chamber assay of CFTR-mediated short-circuit currents (identification of potentiator compounds)). Settings: potentiator incubated 18-24 hours at 37° C. in combination with 10 μM corrector, in the presence of 20% human serum, CFTR-mediated ISC.
T1 construct: human bronchial epithelial (HBE) cells derived from CF subjects heterozygous for F508del and a minimal function CFTR mutation; endogenous in cells; host or cells: primary human bronchial epithelial cells from CF subjects (F508del/MF-HBE)
Assay type: cell-based
In short: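 F508del/MF-HBE cultures were preincubated 18-24 h at 37° C with potentiator plus 10 μM of a fixed corrector compound in 20% human serum; compounds were kept present during measurement. ISC was recorded under voltage clamp (0 mV, 37° C, amiloride apical) and taken as the 20 μM forskolin peak minus the current after inhibitor cocktail.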

T1 sequence (P13569 with tags, fused parts or gaps DEL508-508): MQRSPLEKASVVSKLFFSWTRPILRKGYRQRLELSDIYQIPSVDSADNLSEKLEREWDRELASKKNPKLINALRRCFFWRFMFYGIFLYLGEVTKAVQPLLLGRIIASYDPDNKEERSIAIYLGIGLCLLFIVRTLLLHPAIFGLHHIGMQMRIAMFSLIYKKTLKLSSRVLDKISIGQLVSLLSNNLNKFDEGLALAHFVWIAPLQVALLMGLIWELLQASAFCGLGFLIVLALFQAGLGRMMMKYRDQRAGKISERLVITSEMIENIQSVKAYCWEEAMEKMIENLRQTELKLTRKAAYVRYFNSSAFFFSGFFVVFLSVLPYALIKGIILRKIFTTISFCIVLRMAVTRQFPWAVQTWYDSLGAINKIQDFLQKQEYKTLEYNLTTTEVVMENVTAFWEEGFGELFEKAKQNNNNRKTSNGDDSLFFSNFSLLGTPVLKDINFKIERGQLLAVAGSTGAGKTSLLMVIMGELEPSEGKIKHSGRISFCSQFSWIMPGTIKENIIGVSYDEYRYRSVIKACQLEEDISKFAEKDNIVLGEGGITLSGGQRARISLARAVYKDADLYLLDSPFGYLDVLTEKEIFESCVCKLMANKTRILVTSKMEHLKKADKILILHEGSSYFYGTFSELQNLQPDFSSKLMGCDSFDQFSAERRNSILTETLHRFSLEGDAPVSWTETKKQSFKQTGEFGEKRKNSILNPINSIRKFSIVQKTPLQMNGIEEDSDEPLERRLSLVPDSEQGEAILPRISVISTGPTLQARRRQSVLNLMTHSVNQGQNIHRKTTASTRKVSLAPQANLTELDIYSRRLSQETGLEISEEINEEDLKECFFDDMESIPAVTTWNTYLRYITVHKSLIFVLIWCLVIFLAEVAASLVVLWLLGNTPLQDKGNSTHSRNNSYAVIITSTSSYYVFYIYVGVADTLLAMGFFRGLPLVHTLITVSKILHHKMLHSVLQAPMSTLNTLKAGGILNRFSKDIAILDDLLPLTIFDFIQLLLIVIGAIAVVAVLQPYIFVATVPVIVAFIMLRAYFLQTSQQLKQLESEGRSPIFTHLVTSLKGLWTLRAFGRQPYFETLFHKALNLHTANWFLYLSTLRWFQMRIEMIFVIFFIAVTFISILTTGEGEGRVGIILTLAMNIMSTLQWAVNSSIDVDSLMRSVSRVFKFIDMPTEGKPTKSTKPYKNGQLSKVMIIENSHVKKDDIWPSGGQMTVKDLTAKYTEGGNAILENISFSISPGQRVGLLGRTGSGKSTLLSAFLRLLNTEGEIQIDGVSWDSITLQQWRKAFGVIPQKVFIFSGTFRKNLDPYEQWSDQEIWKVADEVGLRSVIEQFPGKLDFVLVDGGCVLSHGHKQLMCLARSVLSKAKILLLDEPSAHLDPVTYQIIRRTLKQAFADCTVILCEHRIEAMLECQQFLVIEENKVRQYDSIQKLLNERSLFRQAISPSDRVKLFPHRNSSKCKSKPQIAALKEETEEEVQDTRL

| Compound | EC50 [nM] |
| --- | --- |
| Cn1ccc(CN2CCCCC[C@](O)(C(F)(F)F)C3=NN=C(O3)c3nc(c(C(F)(F)F)cc3N)C2=O)n1 [Compound 117, (6R)-17-Amino-6-hydroxy-12-[(1-methylpyrazol-3-yl)methyl]-6,15-bis (trifluorom ethyl)-19-oxa-3,4,12,18-tetrazatricyclo [12.3.1.12,5] nonadeca-1(18),2,4,14,1 6-pentaen-13-one] | > 1000 |
| Cn1cc(CN2CCCCC[C@](O)(C(F)(F)F)C3=NN=C(O3)c3nc(c(C(F)(F)F)cc3N)C2=O)cn1 [Compound 118, (6R)-17-Amino-6-hydroxy-12-[(1-methylpyrazol-4-yl)methyl]-6,15-bis (trifluoromethyl)-19-oxa-3,4,12,18-tetrazatricyclo [12.3.1.12,5] nonadeca-1(18),2,4,14,1 6-pentaen-13-one] | > 1000 |
| CC(C)(C)c1ccc(CN2CCCCC[C@](O)(C(F)(F)F)C3=NN=C(O3)c3nc(c(C(F)(F)F)cc3N)C2=O)cn1 [Compound 119, (6R)-17-Amino-12-[(6-tert-butyl-3-pyridyl)methyl]-6-hydroxy-6,15-bis (trifluoromethyl)-19-oxa-3,4,12,18-tetrazatricyclo [12.3.1.12,5] nonadeca-1(18),2,4,14,1 6-pentaen-13-one] | < 500 |
| CC(C)(C)c1ccc(CN2CCCCC[C@](O)(C(F)(F)F)C3=NN=C(O3)c3nc(c(C(F)(F)F)cc3N)C2=O)nc1 [Compound 120, (6R)-17-Amino-12-[(5-tert-butyl-2-pyridyl)methyl]-6-hydroxy-6,15-bis (trifluoromethyl)-19-oxa-3,4,12,18-tetrazatricyclo [12.3.1.12,5] nonadeca-1(18),2,4,14,1 6-pentaen-13-one] | < 500 |
| Nc1cc(C(F)(F)F)c2nc1-c1nnc(o1)[C@@](O)(C(F)(F)F)CCCCCN(C13CC(F)(C1)C3)C2=O [Compound 121, (6R)-17-Amino-12-(3-fluoro-1-bicyclo[1.1.1]pentanyl)-6-hydroxy-6,15-bis (trifluorom ethyl)-19-oxa-3,4,12,18-tetrazatricyclo [12.3.1.12,5] nonadeca-1(18),2,4,14,1 6-pentaen-13-one] | < 500 |
| CC12CC(N3CCCCC[C@](O)(C(F)(F)F)c4nnc(o4)-c4nc(c(C(F)(F)F)cc4N)C3=O)(C1)C2 [Compound 122, (6R)-17-Amino-6-hydroxy-12-(3-methyl-1-bicyclo[1.1.1]pentanyl)-6,15-bis (trifluoromethyl)-19-oxa-3,4,12,18-tetrazatricyclo [12.3.1.12,5] nonadeca-1(18),2,4,14,1 6-pentaen-13-one] | < 500 |
| CC(C)(C)C12CC(N3CCCCC[C@](O)(C(F)(F)F)c4nnc(o4)-c4nc(c(C(F)(F)F)cc4N)C3=O)(C1)C2 [Compound 123, (6R)-17-Amino-12-(3-tert-butyl-1-bicyclo[1.1.1]pentanyl)-6-hydroxy-6,15-bis (trifluoromethyl)-19-oxa-3,4,12,18-tetrazatricyclo [12.3.1.12,5] nonadeca-1(18),2,4,14,1 6-pentaen-13-one] | < 500 |
| CC1(C)CCCC[C@](O)(C(F)(F)F)C2=NN=C(O2)c2nc(c(C(F)(F)F)cc2N)C(=O)N(Cc2ccc3c(c2)OC(F)(F)O3)C1 [Compound 124, (6R)-18-amino-13-[(2,2-difluoro-1,3-benzodioxol-5-yl)methyl]-6-hydroxy-11,11-dimethyl-6,16-bis (trifluoromethyl)-20-oxa-3,4,13,19-tetrazatricyclo [13.3.1.12,5]icosa-1(19),2,4,15,1 7-pentaen-14-one] | < 500 |
| Nc1cc(C(F)(F)F)c2nc1-c1nnc(o1)[C@@](O)(C(F)(F)F)CCCCCN(C13CCC(CC1)C3)C2=O [Compound 125, (6R)-17-amino-6-hydroxy-12-norbornan-1-yl-6,15-bis (trifluoromethyl)-19-oxa-3,4,12,18-tetrazatricyclo [12.3.1.12,5] nonadeca-1(18),2,4,14,1 6-pentaen-13-one] | < 500 |
| Nc1cc(C(F)(F)F)c2nc1-c1nnc(o1)[C@@](O)(C(F)(F)F)CCCCCN(c1cccnc1)C2=O [Compound 126, (6R)-17-amino-6-hydroxy-12-(3-pyridyl)-6,15-bis (trifluoromethyl)-19-oxa-3,4,12,18-tetrazatricyclo [12.3.1.12,5] nonadeca-1(18),2,4,14,1 6-pentaen-13-one] | > 1000 |
| Cc1ccccc1CN1CCCCC[C@](O)(C(F)(F)F)C2=NN=C(O2)c2nc(c(C(F)(F)F)cc2N)C1=O [Compound 127, (6R)-17-amino-6-hydroxy-12-(0-tolylmethyl)-6,15-bis (trifluoromethyl)-19-oxa-3,4,12,18-tetrazatricyclo [12.3.1.12,5] nonadeca-1(18),2,4,14,1 6-pentaen-13-one] | < 500 |
| CC(C)n1cc(CN2CCCCC[C@](O)(C(F)(F)F)C3=NN=C(O3)c3nc(c(C(F)(F)F)cc3N)C2=O)cn1 [Compound 128, (6R)-17-amino-6-hydroxy-12-[(1-isopropylpyrazol-4-yl)methyl]-6,1-bis (trifluoromethyl)-19-oxa-3,4,12,18-tetrazatricyclo [12.3.1.12,5] nonadeca-1(18),2,4,14,1 6-pentaen-13-one] | < 500 |
| CC(C)n1nccc1CN1CCCCC[C@](O)(C(F)(F)F)C2=NN=C(O2)c2nc(c(C(F)(F)F)cc2N)C1=O [Compound 129, (6R)-17-amino-6-hydroxy-12-[(2-isopropylpyrazol-3-yl)methyl]-6,15-bis (trifluoromethyl)-19-oxa-3,4,12,18-tetrazatricyclo [12.3.1.12,5] nonadeca-1(18),2,4,14,1 6-pentaen-13-one] | < 500 |
| Nc1cc(C(F)(F)F)c2nc1-c1nnc(o1)[C@@](O)(C(F)(F)F)CCCCCN(CC1CCOCC1)C2=O [Compound 132, (6R)-17-amino-6-hydroxy-12-(tetrahydropyran-4-ylmethyl)-6,15-bis (trifluoromethyl)-19-oxa-3,4,12,18-tetrazatricyclo [12.3.1.12,5] nonadeca-1(18),2,4,14,1 6-pentaen-13-one] | < 500 |
| Cc1ccc(CN2CCCCC[C@](O)(C(F)(F)F)C3=NN=C(O3)c3nc(c(C(F)(F)F)cc3N)C2=O)cc1 [Compound 134, (6R)-17-amino-6-hydroxy-12-(p-tolylmethyl)-6,15-bis (trifluoromethyl)-19-oxa-3,4,12,18-tetrazatricyclo [12.3.1.12,5] nonadeca-1(18),2,4,14,1 6-pentaen-13-one] | < 500 |
| Nc1cc(C(F)(F)F)c2nc1-c1nnc(o1)[C@@](O)(C(F)(F)F)CCCCCN(Cc1ccc(C(F)(F)F)cc1)C2=O [Compound 135, (6R)-17-amino-6-hydroxy-6,15-bis (trifluoromethyl)-12-[[4-(trifluoromethyl)phenyl]methyl]-19-oxa-3,4,12,18-tetrazatricyclo [12.3.1.12,5] nonadeca-1(18),2,4,14,1 6-pentaen-13-one] | < 500 |
| Nc1cc(C(F)(F)F)c2nc1-c1nnc(o1)[C@@](O)(C(F)(F)F)CCCCCN(Cc1ccc(F)cc1)C2=O [Compound 136, (6R)-17-amino-12-[(4-fluorophenyl)methyl]-6-hydroxy-6,15-bis (trifluorom ethyl)-19-oxa-3,4,12,18-tetrazatricyclo [12.3.1.12,5] nonadeca-1(18),2,4,14,1 6-pentaen-13-one] | < 500 |
| Nc1cc(C(F)(F)F)c2nc1-c1nnc(o1)[C@@](O)(C(F)(F)F)CCCCCN(CCc1ccccc1)C2=O [Compound 137, (6R)-17-amino-6-hydroxy-12-(2-phenylethyl)-6,15-bis (trifluoromethyl)-19-oxa-3,4,12,18-tetrazatricyclo [12.3.1.12,5] nonadeca-1(18),2,4,14,1 6-pentaen-13-one] | < 500 |
| COc1cccc(CN2CCCCC[C@](O)(C(F)(F)F)C3=NN=C(O3)c3nc(c(C(F)(F)F)cc3N)C2=O)c1 [Compound 138, (6R)-17-amino-6-hydroxy-12-[(3-methoxyphenyl)methyl]-6,15-bis (trifluorom ethyl)-19-oxa-3,4,12,18-tetrazatricyclo [12.3.1.12,5] nonadeca-1(18),2,4,14,1 6-pentaen-13-one] | < 500 |
| CC(C)c1cccc(CN2CCCCC[C@](O)(C(F)(F)F)C3=NN=C(O3)c3nc(c(C(F)(F)F)cc3N)C2=O)c1 [Compound 139, (6R)-17-amino-6-hydroxy-12-[(3-isopropylphenyl)methyl]-6,15-bis (trifluoromethyl)-19-oxa-3,4,12,18-tetrazatricyclo [12.3.1.12,5] nonadeca-1(18),2,4,14,1 6-pentaen-13-one] | < 500 |
| Cc1cccnc1CN1CCCCC[C@](O)(C(F)(F)F)C2=NN=C(O2)c2nc(c(C(F)(F)F)cc2N)C1=O [Compound 140, (6R)-17-amino-6-hydroxy-12-[(3-methyl-2-pyridyl)methyl]-6,15-bis (trifluoromethyl)-19-oxa-3,4,12,18-tetrazatricyclo [12.3.1.12,5] nonadeca-1(18),2,4,14,1 6-pentaen-13-one] | < 500 |
| Nc1cc(C(F)(F)F)c2nc1-c1nnc(o1)[C@@](O)(C(F)(F)F)CCCCCN(Cc1ccccc1OC(F)(F)F)C2=O [Compound 141, (6R)-17-amino-6-hydroxy-12-[[2-(trifluoromethoxy)phenyl]methyl]-6,15-bis (trifluoromethyl)-19-oxa-3,4,12,18-tetrazatricyclo [12.3.1.12,5] nonadeca-1(18),2,4,14,1 6-pentaen-13-one] | < 500 |
| Nc1cc(C(F)(F)F)c2nc1-c1nnc(o1)[C@@](O)(C(F)(F)F)CCCCCN(Cc1cccc(OC(F)(F)F)c1)C2=O [Compound 142, (6R)-17-amino-6-hydroxy-12-[[3-(trifluoromethoxy)phenyl]methyl]-6,15-bis (trifluoromethyl)-19-oxa-3,4,12,18-tetrazatricyclo [12.3.1.12,5] nonadeca-1(18),2,4,14,1 6-pentaen-13-one] | < 500 |
